The numbers were not newly measured in article PMC3807987 (Pharmacognosy Research, 2013), which cites them from elsewhere.

For the data set, the system named is CYP2D6.

Like-named read-outs stand apart in the source and are kept apart here.

With `CN[C@H]1CC[C@@H](c2ccc(Cl)c(Cl)c2)c2ccccc21` [Sertraline], the CYP2D6 inhibition strength result is on record as “mild inhibitor” (dose of 50 mg) and “potent inhibitor” (dose of 200 mg).
